Data reported in article PMC5947742 (The Journal of Dermatology, 2018).

Experiments:
[1] = Plasma pharmacokinetics of dabrafenib, its metabolites and trametinib; type: in vivo, Japanese patients; details: for plasma AUC at repeat dosing (day 21) compared with single dose (day 1): AUC0-12 h for dabrafenib, AUC0-24 h for trametinib; for time by which plasma (trough) concentrations seemed to reach steady state: repeat dosing of 150 mg dabrafenib b.i.d. and 2 mg trametinib q.d.
Safety and tolerability = type: in vivo, Japanese patients

time by which plasma (trough) concentrations seemed to reach steady state [1] [week] | Compound | plasma AUC at repeat dosing (day 21) compared with single dose (day 1) [1] | adverse event leading to discontinuation (Safety and tolerability; patient 1, phase 1) | adverse event leading to discontinuation (Safety and tolerability; patient 11, phase 2) | half-life relative to the dose interval (24 h) ([1]; trametinib 2 mg q.d.)
≤ 3 | CC(C)c1nc(-c2cccc(NS(=O)(=O)c3c(F)cccc3F)c2F)c(-c2ccnc(N)n2)s1 [GSK2167542] |  |  |  | 
≤ 3 | CC(C)(CO)c1nc(-c2cccc(NS(=O)(=O)c3c(F)cccc3F)c2F)c(-c2ccnc(N)n2)s1 [GSK2285403] |  |  |  | 
≤ 3 | CC(C)(C(=O)O)c1nc(-c2cccc(NS(=O)(=O)c3c(F)cccc3F)c2F)c(-c2ccnc(N)n2)s1 [GSK2298683] |  |  |  | 

Compound | time by which plasma (trough) concentrations seemed to reach steady state [1] [week] | plasma AUC at repeat dosing (day 21) compared with single dose (day 1) [1] | adverse event leading to discontinuation (Safety and tolerability; patient 1, phase 1) | adverse event leading to discontinuation (Safety and tolerability; patient 11, phase 2) | half-life relative to the dose interval (24 h) ([1]; trametinib 2 mg q.d.)
CC(C)(C)c1nc(-c2cccc(NS(=O)(=O)c3c(F)cccc3F)c2F)c(-c2ccnc(N)n2)s1 [Dabrafenib, dabrafenib] | ≤ 3 | lower | grade 3 increased blood alkaline phosphatase | grade 3 uveitis | 
CC(=O)Nc1cccc(-n2c(=O)n(C3CC3)c(=O)c3c(Nc4ccc(I)cc4F)n(C)c(=O)c(C)c32)c1 [Trametinib, trametinib] | ≤ 3 | higher |  | grade 3 uveitis | approximately 3.5 times the dose interval
